From ChEMBL document CHEMBL4251681, “Isochromophilones A-F, Cytotoxic Chloroazaphilones from the Marine Mangrove Endophytic Fungus Diaporthe sp. SCSIO 41011” (J Nat Prod, 2018)
Activity calls are given as the source filed them. The rule behind the calls is not given here.

Experiments:
ACHN = assay: Cytotoxicity against human ACHN cells after 72 hrs by CCK-8 assay; assay type: functional, cell-based
786-0 [1] = assay: Cytotoxicity against human 786-O cells after 72 hrs by CCK-8 assay; assay type: functional, cell-based; details: 786-0, 72 h
OS-RC-2 = assay: Cytotoxicity against human OS-RC2 cells after 72 hrs by CCK-8 assay; assay type: functional, cell-based; details: OS-RC-2, 72 h
786-0 [2] = assay: Induction of apoptosis in human 786-O cells assessed as early apoptotic cells at 2.5 uM after 24 hrs by annexin V-FITC/propidium iodide staining based flow cytometry (reference value: 0%); assay type: functional
786-0 [3] = assay: Induction of apoptosis in human 786-O cells assessed as early apoptotic cells at 5 uM after 72 hrs by annexin V-FITC/propidium iodide staining based flow cytometry (reference value: 0%); assay type: functional
786-0 [4] = assay: Induction of apoptosis in human 786-O cells assessed as early apoptotic cells at 5 uM after 24 hrs by annexin V-FITC/propidium iodide staining based flow cytometry (reference value: 0%); assay type: functional
786-0 [5] = assay: Induction of apoptosis in human 786-O cells assessed as early apoptotic cells at 10 uM after 72 hrs by annexin V-FITC/propidium iodide staining based flow cytometry (reference value: 0%); assay type: functional
786-0 [6] = assay: Induction of apoptosis in human 786-O cells assessed as viable cells at 10 uM after 72 hrs by annexin V-FITC/propidium iodide staining based flow cytometry (reference value: 100%); assay type: functional; details: 786-0, 72 h, read-out: Activity
786-0 [7] = assay: Induction of apoptosis in human 786-O cells assessed as late apoptotic cells at 2.5 uM after 24 hrs by annexin V-FITC/propidium iodide staining based flow cytometry (reference value: 0%); assay type: functional
786-0 [8] = assay: Induction of apoptosis in human 786-O cells assessed as early apoptotic cells at 10 uM after 48 hrs by annexin V-FITC/propidium iodide staining based flow cytometry (reference value: 0%); assay type: functional
786-0 [9] = assay: Induction of apoptosis in human 786-O cells assessed as necrotic cells at 2.5 uM after 24 hrs by annexin V-FITC/propidium iodide staining based flow cytometry (reference value: 0%); assay type: functional
786-0 [10] = assay: Induction of apoptosis in human 786-O cells assessed as late apoptotic cells at 5 uM after 72 hrs by annexin V-FITC/propidium iodide staining based flow cytometry (reference value: 0%); assay type: functional
786-0 [11] = assay: Induction of apoptosis in human 786-O cells assessed as late apoptotic cells at 2.5 uM after 48 hrs by annexin V-FITC/propidium iodide staining based flow cytometry (reference value: 0%); assay type: functional
786-0 [12] = assay: Induction of apoptosis in human 786-O cells assessed as viable cells at 5 uM after 24 hrs by annexin V-FITC/propidium iodide staining based flow cytometry (reference value: 100%); assay type: functional; details: 786-0, 24 h, read-out: Activity
786-0 [13] = assay: Induction of apoptosis in human 786-O cells assessed as viable cells at 2.5 uM after 48 hrs by annexin V-FITC/propidium iodide staining based flow cytometry (reference value: 100%); assay type: functional; details: 786-0, 48 h, read-out: Activity
786-0 [14] = assay: Induction of apoptosis in human 786-O cells assessed as necrotic cells at 10 uM after 24 hrs by annexin V-FITC/propidium iodide staining based flow cytometry (reference value: 0%); assay type: functional
786-0 [15] = assay: Induction of apoptosis in human 786-O cells assessed as necrotic cells at 2.5 uM after 48 hrs by annexin V-FITC/propidium iodide staining based flow cytometry (reference value: 0%); assay type: functional
786-0 [16] = assay: Induction of apoptosis in human 786-O cells assessed as necrotic cells at 10 uM after 48 hrs by annexin V-FITC/propidium iodide staining based flow cytometry (reference value: 0%); assay type: functional
786-0 [17] = assay: Induction of apoptosis in human 786-O cells assessed as viable cells at 2.5 uM after 24 hrs by annexin V-FITC/propidium iodide staining based flow cytometry (reference value: 100%); assay type: functional; details: 786-0, 24 h, read-out: Activity
786-0 [18] = assay: Induction of apoptosis in human 786-O cells assessed as viable cells at 2.5 uM after 72 hrs by annexin V-FITC/propidium iodide staining based flow cytometry (reference value: 100%); assay type: functional; details: 786-0, 72 h, read-out: Activity
786-0 [19] = assay: Induction of apoptosis in human 786-O cells assessed as necrotic cells at 5 uM after 72 hrs by annexin V-FITC/propidium iodide staining based flow cytometry (reference value: 0%); assay type: functional
786-0 [20] = assay: Induction of apoptosis in human 786-O cells assessed as necrotic cells at 2.5 uM after 72 hrs by annexin V-FITC/propidium iodide staining based flow cytometry (reference value: 0%); assay type: functional
786-0 [21] = assay: Induction of apoptosis in human 786-O cells assessed as necrotic cells at 10 uM after 72 hrs by annexin V-FITC/propidium iodide staining based flow cytometry (reference value: 0%); assay type: functional
786-0 [22] = assay: Induction of apoptosis in human 786-O cells assessed as viable cells at 10 uM after 24 hrs by annexin V-FITC/propidium iodide staining based flow cytometry (reference value: 100%); assay type: functional; details: 786-0, 24 h, read-out: Activity
786-0 [23] = assay: Induction of apoptosis in human 786-O cells assessed as late apoptotic cells at 10 uM after 48 hrs by annexin V-FITC/propidium iodide staining based flow cytometry (reference value: 0%); assay type: functional
786-0 [24] = assay: Induction of apoptosis in human 786-O cells assessed as necrotic cells at 5 uM after 24 hrs by annexin V-FITC/propidium iodide staining based flow cytometry (reference value: 0%); assay type: functional
786-0 [25] = assay: Cell cycle arrest in human 786-O cells at 2.5 to 10 uM after 24 hrs by […] based flow cytometry; assay type: functional
786-0 [26] = assay: Induction of apoptosis in human 786-O cells assessed as late apoptotic cells at 2.5 uM after 72 hrs by annexin V-FITC/propidium iodide staining based flow cytometry (reference value: 0%); assay type: functional
786-0 [27] = assay: Induction of apoptosis in human 786-O cells assessed as viable cells at 10 uM after 48 hrs by annexin V-FITC/propidium iodide staining based flow cytometry (reference value: 100%); assay type: functional; details: 786-0, 48 h, read-out: Activity
786-0 [28] = assay: Induction of apoptosis in human 786-O cells assessed as late apoptotic cells at 5 uM after 24 hrs by annexin V-FITC/propidium iodide staining based flow cytometry (reference value: 0%); assay type: functional
786-0 [29] = assay: Induction of apoptosis in human 786-O cells assessed as necrotic cells at 5 uM after 48 hrs by annexin V-FITC/propidium iodide staining based flow cytometry (reference value: 0%); assay type: functional
786-0 [30] = assay: Induction of apoptosis in human 786-O cells assessed as early apoptotic cells at 2.5 uM after 48 hrs by annexin V-FITC/propidium iodide staining based flow cytometry (reference value: 0%); assay type: functional
786-0 [31] = assay: Induction of apoptosis in human 786-O cells assessed as late apoptotic cells at 5 uM after 48 hrs by annexin V-FITC/propidium iodide staining based flow cytometry (reference value: 0%); assay type: functional
786-0 [32] = assay: Induction of apoptosis in human 786-O cells assessed as early apoptotic cells at 5 uM after 48 hrs by annexin V-FITC/propidium iodide staining based flow cytometry (reference value: 0%); assay type: functional
786-0 [33] = assay: Induction of apoptosis in human 786-O cells assessed as late apoptotic cells at 10 uM after 72 hrs by annexin V-FITC/propidium iodide staining based flow cytometry (reference value: 0%); assay type: functional
786-0 [34] = assay: Induction of apoptosis in human 786-O cells assessed as late apoptotic cells at 10 uM after 24 hrs by annexin V-FITC/propidium iodide staining based flow cytometry (reference value: 0%); assay type: functional
786-0 [35] = assay: Induction of apoptosis in human 786-O cells assessed as viable cells at 5 uM after 48 hrs by annexin V-FITC/propidium iodide staining based flow cytometry (reference value: 100%); assay type: functional; details: 786-0, 48 h, read-out: Activity
786-0 [36] = assay: Induction of apoptosis in human 786-O cells assessed as viable cells at 5 uM after 72 hrs by annexin V-FITC/propidium iodide staining based flow cytometry (reference value: 100%); assay type: functional; details: 786-0, 72 h, read-out: Activity
786-0 [37] = assay: Induction of apoptosis in human 786-O cells assessed as early apoptotic cells at 10 uM after 24 hrs by annexin V-FITC/propidium iodide staining based flow cytometry (reference value: 0%); assay type: functional
786-0 [38] = assay: Induction of apoptosis in human 786-O cells assessed as early apoptotic cells at 2.5 uM after 72 hrs by annexin V-FITC/propidium iodide staining based flow cytometry (reference value: 0%); assay type: functional

Work on `CC[C@H](C)/C=C(C)/C=C/C1=CC2=C(Cl)[C@H](O)[C@]3(C)OC(=O)[C@H](C(C)=O)[C@H]3C2=CO1` yielded an IC50 (ACHN) of 27 µM, an IC50 (786-0 [1]) of 34 µM and an IC50 (OS-RC-2) of 45 µM.

In the case of `CC[C@H](C)/C=C(C)/C=C/C1=CC2=C(Cl)C(=O)[C@](C)(O)[C@@H](O)[C@H]2CO1`, the IC50 (ACHN) is reported as > 50 µM, the IC50 (786-0 [1]) is reported as 48 µM and the IC50 (OS-RC-2) is reported as 4.9 µM.

`CC[C@H](C)/C=C(C)/C=C/C1=CC2=C(Cl)C(=O)[C@](C)(O)[C@@H](CC(C)=O)C2=CO1` showed an IC50 (ACHN) of 4.4 µM, an IC50 (786-0 [1]) of 3 µM and an IC50 (OS-RC-2) of 3.9 µM.

In the case of `CC[C@H](C)/C=C(C)/C=C/C1=CC2=C(Cl)[C@H](OC)[C@]3(C)O[C@](C)(OC)[C@H](C(C)=O)[C@H]3C2=CO1`, the IC50 (ACHN) is reported as > 50 µM, the IC50 (786-0 [1]) is reported as 38 µM and the IC50 (OS-RC-2) is reported as 44 µM.

`CC[C@H](C)/C=C(C)/C=C/C1=CC2=C(Cl)[C@H](OC)[C@]3(C)O[C@@](C)(OC)[C@H](C(C)=O)[C@H]3C2=CO1` showed an Activity (786-0 [2]) of 0.8%, an Activity (786-0 [3]) of 3.5% and an Activity (786-0 [4]) of 0.6%. The Activity (786-0 [5]) was 27.4%, the viability at 10 µM (786-0 [6]) was 0.5% and the IC50 (ACHN) was 14 µM. The Activity (786-0 [7]) was 1.5%, the Activity (786-0 [8]) was 11.2% and the Activity (786-0 [9]) was 4.4%. The Activity (786-0 [10]) was 4%, the IC50 (786-0 [1]) was 8.9 µM and the Activity (786-0 [11]) was 1.7%. For the same compound, the viability at 5 µM (786-0 [12]) was 87%, the viability at 2.5 µM (786-0 [13]) was 93.7% and the Activity (786-0 [14]) was 28.8%. It also gave an Activity (786-0 [15]) of 2.5%, an Activity (786-0 [16]) of 36.7% and a viability at 2.5 µM (786-0 [17]) of 93.3%. It also gave a viability at 2.5 µM (786-0 [18]) of 90.7%, an Activity (786-0 [19]) of 6.6% and an Activity (786-0 [20]) of 6%. For the same compound, the Activity (786-0 [21]) was 1.4%, the viability at 10 µM (786-0 [22]) was 60.9% and the Activity (786-0 [23]) was 45.5%. For the same compound, the Activity (786-0 [24]) was 10.4%, the Activity (786-0 [25]) was “inactive” and the Activity (786-0 [26]) was 1.8%. The viability at 10 µM (786-0 [27]) was 6.6%, the Activity (786-0 [28]) was 2% and the Activity (786-0 [29]) was 8.9%. It also gave an Activity (786-0 [30]) of 2%, an Activity (786-0 [31]) of 2.3% and an Activity (786-0 [32]) of 2.8%. The Activity (786-0 [33]) was 70.7%, the Activity (786-0 [34]) was 7.5% and the viability at 5 µM (786-0 [35]) was 86.1%. The IC50 (OS-RC-2) was 13 µM, the viability at 5 µM (786-0 [36]) was 85.9% and the Activity (786-0 [37]) was 2.7%. It also gave an Activity (786-0 [38]) of 1.5%.

For `CC[C@H](C)/C=C(C)/C=C/C1=CC2=C(Cl)C(=O)[C@]3(C)OC(=O)/C(=C(\C)O)[C@]3(O)[C@@]23O[C@H]3O1`, the IC50 (ACHN) was 13 µM, the IC50 (786-0 [1]) was 10 µM and the IC50 (OS-RC-2) was 38 µM.
